We go through one substance from patent US11453700B2, “Peptide having activities of skin whitening and uses thereof” (CAREGEN CO., LTD., priority 2019, dated 2022).

The test system of assay [1] is MITF. The assay is described as follows: Expression of melanin production-associated proteins (immunoblotting), MITF. It is filed as cell-based, mouse. The note with it: B16F10 cells, 200 ng/mL α-MSH, peptide 1-160 μM, 72 hours, FIG. 4. Here is the method:
(§1) In detail, a mouse melanoma cell B16F10 was seeded in a 6-well plate at a density of 5×10^4 cells/well, followed by incubation for 16 hours. Thereafter, the culture medium was replaced by a medium supplemented with 2% (v/v) serum, and then 200 ng/mL of α-MSH was added thereto. Together therewith, the peptide composed of the amino acid sequence of SEQ ID NO: 1 was added at a concentration of 1 μM, 10 μM, 20 μM, 40 μM, 60 μM, 80 μM or 160 μM, respectively, followed by incubation for 72 hours. Thereafter, the cultured cells were lysed, and then subjected to immunoblotting using antibodies (all available from santacruz biotechnology, USA) against Mlph, Rab27a, tyrosinase (TYR), or MITF. In addition, a control, a negative control, and a positive control were used in the same manner as in Example 2.(1).
In general terms: In western blotting, separated proteins are transferred to a membrane and probed.

The subject of assay [2] is tyrosinase (TYR). Kind of assay: Expression of melanin production-associated proteins (immunoblotting), TYR. It is filed as cell-based, mouse. The note with it: B16F10 cells, 200 ng/mL α-MSH, peptide 1-160 μM, 72 hours, FIG. 4. Here is the method:
as §1

Assay [3] has as its target T1, tyrosinase (Mus musculus, UniProt P11344).
T1 construct: the cells were lysed by adding 0.1 M sodium phosphate buffer (pH 6.8, lysis buffer) containing 1% (v/v) triton X-100; endogenous in cells; host or cells: B16F10 mouse melanoma cells, stimulated with alpha-MSH
T1 sequence (P11344 19-533): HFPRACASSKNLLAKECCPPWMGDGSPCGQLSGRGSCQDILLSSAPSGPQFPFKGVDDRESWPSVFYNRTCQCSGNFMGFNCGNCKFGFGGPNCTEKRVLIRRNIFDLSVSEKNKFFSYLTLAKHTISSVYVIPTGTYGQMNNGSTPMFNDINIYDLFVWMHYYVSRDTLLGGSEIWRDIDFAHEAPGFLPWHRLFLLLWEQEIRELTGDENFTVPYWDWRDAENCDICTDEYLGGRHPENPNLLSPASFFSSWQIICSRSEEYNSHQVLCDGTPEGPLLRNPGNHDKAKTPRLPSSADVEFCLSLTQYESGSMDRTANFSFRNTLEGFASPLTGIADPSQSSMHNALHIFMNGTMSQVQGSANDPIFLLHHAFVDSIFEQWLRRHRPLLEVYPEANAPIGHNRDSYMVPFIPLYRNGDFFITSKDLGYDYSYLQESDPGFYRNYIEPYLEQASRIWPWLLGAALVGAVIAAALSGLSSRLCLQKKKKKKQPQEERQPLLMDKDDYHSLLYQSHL
The assay is described as follows: Inhibitory effect on tyrosinase activity in α-MSH-stimulated B16F10 cells (L-DOPA, cell lysate). The format is cell-based. Conditions: 200 ng/mL α-MSH, peptide 1-160 μM, 72 hours, FIG. 2. Here is the method: In detail, a mouse melanoma cell B16F10 was seeded in a 6-well plate at a density of 5×10^4 cells/well, followed by incubation for 16 hours. Thereafter, the culture medium was replaced by a medium supplemented with 2% (v/v) serum, and then 200 ng/mL of α-MSH was added thereto. Together therewith, the peptide composed of the amino acid sequence of SEQ ID NO: 1 was added at a concentration of 1 μM, 10 μM, 20 μM, 40 μM, 60 μM, 80 μM or 160 μM, respectively, followed by incubation for 72 hours. The 6-well plate was placed on ice, and then washed with cold PBS twice. Thereafter, the cells were lysed by adding 0.1 M sodium phosphate buffer (pH 6.8, lysis buffer) containing 1% (v/v) triton X-100. Thereafter, the cells in the well plate were scraped using a scraper, and collected in a 1.5 mL tube. The collected cells were vortexed, and centrifuged at 15,000 rpm for 10 minutes to obtain a supernatant. Thereafter, proteins in the supernatant were quantified to adjust the protein content at a predetermined amount. A buffer was added thereto, and 90 μL total of the sample was dispensed in a 96-well plate.
Thereafter, 20 μL of 10 mM L-DOPA was added to each sample, and incubated at 37° C. for 1 hour. Then, absorbance at 475 nm was measured. […] From absorbance at […], the tyrosinase activity (fold) was determined.

The test system of assay [4] is TRP1. Kind of assay: Expression of melanin production-associated genes (RT-PCR), TRP1. Conditions: B16F10 cells, 200 ng/mL α-MSH, peptide 1-160 μM, 72 hours, FIG. 3. The format is cell-based, mouse. Here is the method:
(§2) In detail, a mouse melanoma cell B16F10 was seeded in a 6-well plate at a density of 5×10^4 cells/well, followed by incubation for 16 hours. Thereafter, the culture medium was replaced by a medium supplemented with 2% (v/v) serum, and then 200 ng/mL of α-MSH was added thereto. Together therewith, the peptide composed of the amino acid sequence of SEQ ID NO: 1 was added at a concentration of 1 μM, 10 μM, 20 μM, 40 μM, 60 μM, 80 μM or 160 μM, respectively, followed by incubation for 72 hours. mRNAs were extracted from the cultured cells, and the extracted mRNAs were reverse transcribed using a cDNA synthesis kit & PCR pre-mix (Intron, Korea), thereby synthesizing cDNA, respectively. Thereafter, a polymerase chain reaction (PCR) was carried out using each cDNA and Rab27a, Melanophilin (Mlph), myosin VA, MITF, tyrosinase, or TRP1 primer pairs. Moreover, a control, a negative control, and a positive control were used in the same manner as in Example 2.(1), and nucleotide sequences of the primers used herein are as in Table 3 below.

In assay [5] the test system is Melanophilin (Mlph). The assay is described as follows: Expression of melanin production-associated genes (RT-PCR), Mlph. The format is cell-based, mouse. The note with it: B16F10 cells, 200 ng/mL α-MSH, peptide 1-160 μM, 72 hours, FIG. 3. As to the method:
as §2

For assay [6], the system named is Mlph. The assay is described as follows: Expression of melanin production-associated proteins (immunoblotting), Mlph. It is filed as cell-based, mouse. The note with it: B16F10 cells, 200 ng/mL α-MSH, peptide 1-160 μM, 72 hours, FIG. 4. As to the method:
as §1

Assay [7] deals with Rab27a. The assay is described as follows: Expression of melanin production-associated genes (RT-PCR), Rab27a. It is filed as cell-based, mouse. The note with it: B16F10 cells, 200 ng/mL α-MSH, peptide 1-160 μM, 72 hours, FIG. 3. Here is the method: as §2
The subject of assay [8] is tyrosinase. The assay is described as follows: Expression of melanin production-associated genes (RT-PCR), tyrosinase. The note with it: B16F10 cells, 200 ng/mL α-MSH, peptide 1-160 μM, 72 hours, FIG. 3. It is filed as cell-based, mouse. Here is the method:
as §2

Assay [9] has as its system B16F10 cells. Kind of assay: Inhibitory effect on melanin production in α-MSH-stimulated B16F10 cells. Conditions: 200 ng/mL α-MSH, peptide 10, 50, 100 or 200 μM, 72 hours, FIG. 1. It is filed as cell-based, mouse. Here is the method: A mouse melanoma cell B16F10 was seeded in a 6-well plate at a density of 5×10^4 cells/well, followed by incubation for 16 hours. Thereafter, the culture medium was replaced by a medium supplemented with 2% (v/v) serum, and then 200 ng/mL of α-melanocyte-stimulating hormones (α-MSH) was added thereto to stimulate melanin production, together with each peptide of an amino acid sequence of SEQ ID NO: 1, at a concentration of 10 μM, 50 μM, 100 μM, or 200 μM, respectively, followed by incubation for 72 hours. Thereafter, the incubated cells were dissolved in 1 N NaOH, and absorbance at 450 nm was measured. In addition, an untreated group (Con) was used as a control, and only an α-MSH-treated group as a negative control and 200 μM or 500 μM of arbutin-, which is a known skin-whitening agent, and α-MSH-treated group as a positive control were used.
From absorbance at 450 nm, the content of melanin (%) produced by B16F10 cells was determined.

Assay [10] has as its system Rab27a. The assay is described as follows: Expression of melanin production-associated proteins (immunoblotting), Rab27a. It is filed as cell-based, mouse. Conditions: B16F10 cells, 200 ng/mL α-MSH, peptide 1-160 μM, 72 hours, FIG. 4. As to the method:
as §1

Assay [11] concerns MITF. The assay is described as follows: Expression of melanin production-associated genes (RT-PCR), MITF. It is filed as cell-based, mouse. The note with it: B16F10 cells, 200 ng/mL α-MSH, peptide 1-160 μM, 72 hours, FIG. 3. As to the method: as §2
Assay [12] has as its system myosin VA. The assay is described as follows: Expression of melanin production-associated genes (RT-PCR), myosin VA. It is filed as cell-based, mouse. The note with it: B16F10 cells, 200 ng/mL α-MSH, peptide 1-160 μM, 72 hours, FIG. 3. Here is the method: as §2

With PNRYP [SEQ ID NO: 1], the “expression of MITF protein” value in assay [1] was “inhibited”. In assay [2], the “expression of TYR protein” value is given as “inhibited”. Besides, the tyrosinase activity result in [3] is given as “inhibited”. The “expression of TRP1 gene” value in assay [4] was “inhibited”. The “expression of Mlph gene” value in assay [5] was “inhibited”. The “expression of Mlph protein” value in [6] is reported as “inhibited”. In assay [7], the “expression of Rab27a gene” value is given as “inhibited”. Further, the “expression of tyrosinase gene” value in assay [8] was “inhibited”. In assay [9], the melanin production result was “reduced in a concentration-dependent manner”. In addition, the “expression of Rab27a protein” value in [10] is reported as “inhibited”. For the same substance, the “expression of MITF gene” value in assay [11] is “inhibited”. Further, the “expression of myosin VA gene” value in assay [12] is given as “inhibited”.
